According to the supplement of paper PMC10307832:

Assays:
Experiment in all cases: relative viability (nuclei count vs DMSO), 5 days (fraction); higher = more cells survive
KIN001-266 + Palbociclib = compound: CCN1CCC(CC1)N2C=C(N=N2)CNC3=CC4=C(C(=CN=C4C(=C3)Cl)C#N)NC5=CC(=C(C=C5)F)Cl [KIN001-266] + CC(=O)c1c(C)c2cnc(Nc3ccc(N4CCNCC4)cn3)nc2n(C2CCCC2)c1=O [Palbociclib] (partner 0.5 µM)
Outline: (§1)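 Dosing by pin tool came one day after lung cancer cell lines were seeded in 1536-well plates, using either one drug or a fixed anchor-drug dose plus five library-drug doses (not always all listed) in √10 steps. After 5 days, nuclei were counted on 4× images. Relative viability is treated-well nuclei count divided by vehicle-well nuclei count, and values are medians of duplicate plates.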

KIN001-266 + Vorinostat = compound: CCN1CCC(CC1)N2C=C(N=N2)CNC3=CC4=C(C(=CN=C4C(=C3)Cl)C#N)NC5=CC(=C(C=C5)F)Cl [KIN001-266] + O=C(CCCCCCC(=O)Nc1ccccc1)NO [Vorinostat] (partner 1 µM)
Outline: as §1

KIN001-266 + Dasatinib = compound: CCN1CCC(CC1)N2C=C(N=N2)CNC3=CC4=C(C(=CN=C4C(=C3)Cl)C#N)NC5=CC(=C(C=C5)F)Cl [KIN001-266] + Cc1nc(Nc2ncc(C(=O)Nc3c(C)cccc3Cl)s2)cc(N2CCN(CCO)CC2)n1 [Dasatinib] (partner 0.075 µM)
Outline: as §1

KIN001-266 + Pemetrexed = compound: CCN1CCC(CC1)N2C=C(N=N2)CNC3=CC4=C(C(=CN=C4C(=C3)Cl)C#N)NC5=CC(=C(C=C5)F)Cl [KIN001-266] + Nc1nc2[nH]cc(CCc3ccc(C(=O)N[C@@H](CCC(=O)O)C(=O)O)cc3)c2c(=O)[nH]1 [Pemetrexed] (partner 0.2 µM)
Outline: as §1

| Cell Line | relative viability (KIN001-266 + Palbociclib; first compound 0.08 µM) | relative viability (KIN001-266 + Palbociclib; first compound 0.253 µM) | relative viability (KIN001-266 + Palbociclib; first compound 0.8 µM) | relative viability (KIN001-266 + Palbociclib; first compound 2.53 µM) | relative viability (KIN001-266 + Palbociclib; first compound 8 µM) | relative viability (KIN001-266 + Vorinostat; first compound 0.08 µM) | relative viability (KIN001-266 + Vorinostat; first compound 0.253 µM) | relative viability (KIN001-266 + Vorinostat; first compound 0.8 µM) | relative viability (KIN001-266 + Vorinostat; first compound 2.53 µM) | relative viability (KIN001-266 + Vorinostat; first compound 8 µM) | relative viability (KIN001-266 + Dasatinib; first compound 0.08 µM) | relative viability (KIN001-266 + Dasatinib; first compound 0.253 µM) | relative viability (KIN001-266 + Dasatinib; first compound 0.8 µM) | relative viability (KIN001-266 + Dasatinib; first compound 2.53 µM) | relative viability (KIN001-266 + Dasatinib; first compound 8 µM) | relative viability (KIN001-266 + Pemetrexed; first compound 0.08 µM) | relative viability (KIN001-266 + Pemetrexed; first compound 0.253 µM) | relative viability (KIN001-266 + Pemetrexed; first compound 0.8 µM) | relative viability (KIN001-266 + Pemetrexed; first compound 2.53 µM) | relative viability (KIN001-266 + Pemetrexed; first compound 8 µM) |
| --- | --- | --- | --- | --- | --- | --- | --- | --- | --- | --- | --- | --- | --- | --- | --- | --- | --- | --- | --- | --- |
| NCI-H3122 | 0.155 | 0.204 | 0.176 | 0.233 | 0.209 | 0.966 | 1.13 | 0.992 | 1.06 | 1.02 | 0.78 | 0.752 | 0.856 | 0.891 | 0.763 | 0.206 | 0.2 | 0.198 | 0.197 | 0.214 |
| PC-3 [JPC-3] | 0.539 | 0.544 | 0.542 | 0.537 | 0.549 | 0.856 | 0.887 | 0.801 | 0.987 | 0.847 | 0.982 | 1.01 | 0.912 | 1.01 | 0.847 | 1.08 | 1.09 | 1.14 | 1.1 | 0.965 |
| PC-14 | 0.55 | 0.518 | 0.594 | 0.509 | 0.0895 | 0.627 | 0.803 | 0.158 | 0.577 | 0.0881 | 0.297 | 0.277 | – | 0.203 | 0.0481 | 0.161 | 0.133 | 0.164 | 0.113 | 0.186 |
| RERF-LC-KJ | 1.14 | 1.07 | 1.13 | 1.11 | 0.83 | 0.765 | 0.779 | 0.65 | 0.682 | 0.555 | 0.951 | 0.922 | 0.757 | 0.725 | 0.417 | 0.475 | 0.507 | 0.475 | 0.499 | 0.467 |
| SK-LU-1 | 0.393 | 0.381 | 0.421 | 0.373 | 0.339 | 0.833 | 0.799 | 0.783 | 0.776 | 0.518 | 0.192 | 0.19 | 0.172 | 0.197 | 0.195 | 1.03 | 1 | 1.06 | 0.962 | 0.714 |
| SK-MES-1 | 0.331 | 0.352 | 0.28 | 0.336 | 0.316 | 1.1 | 1.19 | 1.03 | 1.03 | 0.713 | 0.418 | 0.356 | 0.357 | 0.337 | 0.247 | 0.873 | 0.912 | 0.903 | 0.833 | 0.79 |
| SW 900 | 0.558 | 0.498 | 0.611 | 0.555 | 0.268 | 0.557 | 0.549 | 0.466 | 0.426 | 0.319 | 0.753 | 0.491 | 0.544 | 0.764 | 0.507 | 0.494 | 0.496 | 0.491 | 0.47 | 0.43 |
| SW 1573 | 0.39 | 0.376 | 0.457 | 0.426 | 0.356 | 0.796 | 0.625 | 1.06 | 0.835 | 0.654 | 0.515 | 0.735 | 0.483 | 0.503 | 0.437 | 0.809 | 0.792 | 0.94 | 0.713 | 0.751 |
| UMC-11 | 0.293 | 0.338 | 0.304 | 0.329 | 0.391 | 0.334 | 0.421 | 0.431 | 0.411 | 0.44 | 0.438 | 0.452 | 0.481 | 0.421 | 0.382 | 0.773 | 0.728 | 0.757 | 0.757 | 0.707 |
